Test results from publication PMC4689404, “2-Benzazolyl-4-Piperazin-1-Ylsulfonylbenzenecarbohydroxamic Acids as Novel Selective Histone Deacetylase-6 Inhibitors with Antiproliferative Activity” (PLoS ONE, 2015).

Key:
Test in all cases: NCI 60 screen, five dose
Format in all cases: cell-based
MDA-MB-468 = conditions: Homo sapiens, Breast Cancer, GI50 = molar concentration, read-out: Log10 GI50 (converted)
K-562 = conditions: Homo sapiens, K562, Leukemia, GI50 = molar concentration, read-out: Log10 GI50 (converted)
HS 578T = conditions: Homo sapiens, Breast Cancer, GI50 = molar concentration, read-out: Log10 GI50 (converted)
OVCAR-3 = conditions: Homo sapiens, Ovarian Cancer, GI50 = molar concentration, read-out: Log10 GI50 (converted)
SR = conditions: Homo sapiens, Leukemia, GI50 = molar concentration, read-out: Log10 GI50 (converted)
HT29 = conditions: Homo sapiens, HT-29, Colon Cancer, GI50 = molar concentration, read-out: Log10 GI50 (converted)
MOLT-4 = conditions: Homo sapiens, Leukemia, GI50 = molar concentration, read-out: Log10 GI50 (converted)

Question: Which GI50 (MDA-MB-468) does the source give for O=C(NO)c1ccc(S(=O)(=O)N2CCN(c3nc4ccccc4o3)CC2)cc1 [Compound 9c, 4-(4-Benzoxazol-2-yl-piperazin-1-sulfonyl)-N -hydroxy-benzamid] here?
Answer: The GI50 was 11 µM.

Question: What about the GI50 (K-562) of the same molecule?
Answer: The GI50 was 6.31 µM.

Question: With O=C(NO)c1ccc(S(=O)(=O)N2CCN(c3nc4ccccc4s3)CC2)cc1 [Compound 9d, 4-(4-Benzothiazol-2-yl-piperazin-1-sulfonyl)-N -hydroxy-benzamid] as the molecule, how does the GI50 (HS 578T) read?
Answer: The GI50 was 1.45 µM.

Question: What about the GI50 (OVCAR-3) of the same molecule?
Answer: The GI50 was 3.02 µM.

Question: What about the GI50 (SR) of the same molecule?
Answer: The GI50 was 1.12 µM.

Question: What about the GI50 (HT29) of the same molecule?
Answer: The GI50 was 5.62 µM.

Question: What about the GI50 (MOLT-4) of the same molecule?
Answer: The GI50 was 3.02 µM.
